Laboratory results from PMC5424463, “A strategy based on nucleotide specificity leads to a subfamily-selective and cell-active inhibitor of N ^6-methyladenosine demethylase FTO” (Chemical Science, 2014).
Where “and” joins values, the source holds several entries; their conditions need not be identical. Identical values can stand only once.

target: T1, ALKBH5 (Homo sapiens, UniProt Q6P6C2); test: Differential scanning fluorimetry (DSF)-based binding assay, ALKBH5; settings: 100 μM compound, 2 μM protein, 50 μM MnCl2, read-out: Tm shift (ALKBH5)
T1 construct: pNIC28-Bsa4 ALKBH5 (encompassing residues 66-292); made in house; host or cells: E. coli BL21 (DE3) Rosetta T1R
T1 sequence (Q6P6C2 66-292): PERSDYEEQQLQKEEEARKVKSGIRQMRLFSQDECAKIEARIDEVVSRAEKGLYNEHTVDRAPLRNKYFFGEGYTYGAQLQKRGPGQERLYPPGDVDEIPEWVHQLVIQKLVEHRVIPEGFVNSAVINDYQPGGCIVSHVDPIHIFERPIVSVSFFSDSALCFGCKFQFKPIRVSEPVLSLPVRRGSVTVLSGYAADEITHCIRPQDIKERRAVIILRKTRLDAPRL
Protocol: (§1) Superdex-200 column (GE Healthcare) pre-equilibrated with 20 mM HEPES, pH 7.5, 300 mM NaCl, 10% (v/v) glycerol, 0.5 mM TCEP. […]
(§2) Differential scanning fluorimetry (DSF)-based binding assay
DSF-based binding assay was performed using a MiniOpticon™ Real-Time PCR Detection System (Bio-Rad), monitoring protein unfolding using SYPRO orange (Invitrogen) according […]
to the reported method.[16] […]
and emission respectively. Reaction mixes contained 2 μM protein, 50 μM MnCl2, 100 μM […]
Reagents were prepared in 50mM
HEPES buffer, pH 7.5 except metals, which were dissolved as 100 mM stocks in 20 mM HCl, then further diluted in MilliQ water. Compounds tested were prepared in 100% DMSO and added such that the final concentration of DMSO was not more than 1% v/v of assay […]
(§3) increased linearly by 1°C min -1. The software provided was used to perform global minimum subtraction. The inflection point, representing Tm, was calculated by fitting the Boltzmann equation to the sigmoidal curves obtained; data were processed using GraphPad Prism 6.0™.
The Tm shift caused by the addition of small molecules/ fragments was determined by subtraction of the “reference” Tm (protein incubated with metal and 1% v/v DMSO) from the Tm obtained in the presence of the compound. […]

SMILES	ΔTm at 100 µM
O=C(O)C=CC(=O)NNC(=O)c1cc(Cc2ccccc2)ccn1 [Compound 22]	2.8 °C
O=C(O)/C=C/C(=O)NNC(=O)c1cnccc1Cc1ccccc1 [Compound 12]	2.7 °C
O=C(O)/C=C/C(=O)NNC(=O)c1cccnc1 [Compound 21]	2.1 °C
O=C(O)/C=C/C(=O)NNC(=O)c1ccccn1 [Compound 23]	2.1 °C

target: T1, ALKBH5; test: MALDI-based inhibition assay for ALKBH5, m6A-ssDNA substrate; type: biochemical; settings: read-out: IC50 (ALKBH5)
Protocol: MALDI-based inhibition assays for FTO and ALKBH5
The assay was modified from previously reported method.[5] An 8-mer m6A-ssDNA substrate with the sequence 5’-TCA(m6A)CAGC-3’ (Yale University, W.M. Keck Foundation Biotechnology Resource Laboratory) was used in this inhibition assay. The assay was performed in triplicate for each inhibitor, in a final reaction volume of 25 µL. Reaction […]
µM), L-ascorbate (2 mM), m6A-ssDNA substrate (100 µM), in 50 mM HEPES buffer, pH 7.5, and inhibitor at various concentrations (final DMSO concentration not more than 1% v/v of assay mix). The reaction was incubated at room temperature for 30 min, before 1:1 quenching with 20% v/v formic acid. 1 uL of the diluted assay mixture was then mixed with 1 uL of 3-hydroxpicolinic acid (3-HPA, the MALDI-TOF-MS matrix, Sigma-Aldrich) and spotted onto the MALDI-TOF-MS plate before analysis. The 3-HPA matrix was prepared by mixing 9 parts of 50 mg/mL 3-hydroxpicolinic acid in 50% MeCN/Milli-Q H2O with 1 part […]
The percentage inhibition was estimated based on the relative intensities of the methylated substrate and the demethylated product observed in the mass spectra. For IC50 determination, eight different concentrations of […]
the variation in percentage demethylation at different inhibitor concentrations, using nonlinear regression, with normalized dose-response fit on GraphPad Prism 6.0™. […]

SMILES	IC50
O=C(O)C=CC(=O)NNC(=O)c1cc(Cc2ccccc2)ccn1 [Compound 22]	105 µM
O=C(O)/C=C/C(=O)NNC(=O)c1cnccc1Cc1ccccc1 [Compound 12]	108 µM
O=C(O)/C=C/C(=O)NNC(=O)c1cccnc1 [Compound 21]	168 µM and > 100 µM
O=C(O)/C=C/C(=O)NNC(=O)c1ccccn1 [Compound 23]	157 µM

target: T2, AlkB (Escherichia coli, UniProt P05050); test: Differential scanning fluorimetry (DSF)-based binding assay, AlkB; settings: 100 μM compound, 2 μM protein, 50 μM MnCl2, read-out: Tm shift (AlkB)
T2 construct: made in house; host or cells: E. coli BL21 (DE3) Rosetta T1R
T2 sequence (P05050 12-216): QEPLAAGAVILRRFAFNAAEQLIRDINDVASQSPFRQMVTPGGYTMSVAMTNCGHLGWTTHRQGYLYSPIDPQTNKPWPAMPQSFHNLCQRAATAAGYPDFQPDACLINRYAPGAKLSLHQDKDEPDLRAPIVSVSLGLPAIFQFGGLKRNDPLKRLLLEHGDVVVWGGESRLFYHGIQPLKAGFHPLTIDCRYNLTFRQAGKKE
Protocol: as §1, §2
(§4) DSF-based binding assay was performed using a MiniOpticon™ Real-Time PCR Detection System (Bio-Rad), monitoring protein unfolding using SYPRO orange (Invitrogen) according to the reported method.[16] FAM (492 nm) and ROX (610 nm) filters were used for excitation and emission respectively. Reaction mixes contained 2 μM protein, 50 μM MnCl2, 100 μM compounds, 5x SYPRO orange in a final volume of 50 μl. Reagents were prepared in 50mM HEPES buffer, pH 7.5 except metals, which were dissolved as 100 mM stocks in 20 mM HCl, then further diluted in MilliQ water. Compounds tested were prepared in 100% DMSO and added such that the final concentration of DMSO was not more than 1% v/v of assay […]
as §3, with “mix. Fluorescence readings were taken every 1°C in the range 25-95°C, with the temperature increased” for “increased”
(§5) The Tm shift caused by the addition of small molecules/ fragments was determined by subtraction of the “reference” Tm (protein incubated with metal and 1% v/v DMSO) from the Tm obtained in the presence of the compound. The assay was performed in triplicate for each inhibitor, with standard deviations typically < 1°C. […]

SMILES	ΔTm at 100 µM
O=C(O)C=CC(=O)NNC(=O)c1cc(Cc2ccccc2)ccn1 [Compound 22]	3.2 °C
O=C(O)/C=C/C(=O)NNC(=O)c1cnccc1Cc1ccccc1 [Compound 12]	4.5 °C
O=C(O)/C=C/C(=O)NNC(=O)c1cccnc1 [Compound 21]	1.8 °C
O=C(O)/C=C/C(=O)NNC(=O)c1ccccn1 [Compound 23]	1.5 °C

target: T3, ALKBH2 (Homo sapiens, UniProt Q6NS38); test: Differential scanning fluorimetry (DSF)-based binding assay, ALKBH2; settings: DSF, 100 μM compound, 2 μM protein, 50 μM MnCl2; read-out: Tm shift (ALKBH2)
T3 construct: made in house; host or cells: E. coli BL21 (DE3)
T3 sequence (Q6NS38 56-258): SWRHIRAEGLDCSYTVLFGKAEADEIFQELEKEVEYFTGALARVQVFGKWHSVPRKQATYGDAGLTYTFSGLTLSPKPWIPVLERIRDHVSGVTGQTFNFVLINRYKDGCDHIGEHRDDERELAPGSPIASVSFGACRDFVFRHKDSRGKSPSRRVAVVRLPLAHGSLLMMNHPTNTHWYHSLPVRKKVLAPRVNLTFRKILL
Protocol: as §1, §2, §4
as §3, with “mix. Fluorescence readings were taken every 1°C in the range 25-95°C, with the temperature increased” for “increased”
as §5

SMILES	ΔTm at 100 µM
O=C(O)C=CC(=O)NNC(=O)c1cc(Cc2ccccc2)ccn1 [Compound 22]	3.7 °C
O=C(O)/C=C/C(=O)NNC(=O)c1cnccc1Cc1ccccc1 [Compound 12]	4.9 °C
O=C(O)/C=C/C(=O)NNC(=O)c1cccnc1 [Compound 21]	2 °C
O=C(O)/C=C/C(=O)NNC(=O)c1ccccn1 [Compound 23]	2.3 °C
